Assay results published in patent US20170226483A1, “Methods and Vectors to Produce Vector Free Induced Pluripotent Stem Cells” (Lonza Walkersville, Inc., priority 2016, published 2017).

Experiments:
[1] = tested on: hiPSC that do not express the respective suicide gene; experiment: Cytotoxic effect of the suicide gene substrate on hPSCs that do not express the suicide gene (alkaline phosphatase staining); format: cell-based, human; details: 48 hours
Source text: Cell were fixed and stained for alkaline phosphatase activity after 48 hr. […] Additional experiments will determine the required levels of ganciclovir and 5-FC in hiPSCs that express the suicide gene, to determine the minimum concentration required.

K3T3 sarcoma tumors = details: BALB/c mice bearing K3T3 sarcoma tumors produced by the cell lines; cited from earlier work
[2] = tested on: BALB/c murine K3T3 sarcoma cell lines with herpes simplex virus thymidine kinase gene; details: K3T3 sarcoma cell lines carrying HSV thymidine kinase gene; cited from earlier work

Row | Compound | cytotoxic effect on hiPSCs ([1]; 5-FC 1, 10 and 100 μM) | cytotoxic effect on hiPSCs ([1]; ganciclovir 0.2, 2 or 20 μM) | effect on tumors in vivo (K3T3 sarcoma tumors) | effect on tumor cells in vitro [2]
1 | Nc1nc(=O)[nH]cc1F [Vector 5-FC, 5-Flurocytosine] | no cytotoxic effect | – | – | –
2 | Nc1nc(O)c2ncn(COC(CO)CO)c2n1 [ganciclovir, Ganciclovir] | – | no cytotoxic effect | destruction of the tumors | destruction of the tumor cells
